EC50 and Ki data for twelve molecules are collected here from patent publication US8067447B2, “Modulators of glucocorticoid receptor, AP-1, and/or NF-κB activity and use thereof” (Bristol-Myers Squibb Company, priority 2006, dated 2011).

Where two headings read alike, the source gives them in different places.

In assay [1] the test system is AP-1 induced transcriptional activity. Description: Cellular Transrepressional Assay (AP-1 luciferase reporter in A549 cells, PMA-activated). The class given is cell-based. Conditions: A549 cells with 7x AP-1 luciferase reporter, 10 ng/ml PMA, read-out: AP-1 (EC50, nM) (Cellular Transrepression Assay). Put shortly:
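Test molecules spanning 0.1 nM to 40 μM were co-incubated 7 h with 10 ng/ml PMA in A549 cells stably carrying a 7× AP-1-driven luciferase plasmid. Repression, as % reduction of PMA-alone luminescence measured 10 min after reagent addition, was curve-fitted to give EC50s.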

Assay [2] has as its target T1, human full-length glucocorticoid receptor (Homo sapiens, UniProt P04150).
T1 construct: a cell lysate containing recombinantly expressed human full-length glucocorticoid receptor; purchased PanVera Co., Madison, Wis; P2816
T1 sequence (P04150 1-777): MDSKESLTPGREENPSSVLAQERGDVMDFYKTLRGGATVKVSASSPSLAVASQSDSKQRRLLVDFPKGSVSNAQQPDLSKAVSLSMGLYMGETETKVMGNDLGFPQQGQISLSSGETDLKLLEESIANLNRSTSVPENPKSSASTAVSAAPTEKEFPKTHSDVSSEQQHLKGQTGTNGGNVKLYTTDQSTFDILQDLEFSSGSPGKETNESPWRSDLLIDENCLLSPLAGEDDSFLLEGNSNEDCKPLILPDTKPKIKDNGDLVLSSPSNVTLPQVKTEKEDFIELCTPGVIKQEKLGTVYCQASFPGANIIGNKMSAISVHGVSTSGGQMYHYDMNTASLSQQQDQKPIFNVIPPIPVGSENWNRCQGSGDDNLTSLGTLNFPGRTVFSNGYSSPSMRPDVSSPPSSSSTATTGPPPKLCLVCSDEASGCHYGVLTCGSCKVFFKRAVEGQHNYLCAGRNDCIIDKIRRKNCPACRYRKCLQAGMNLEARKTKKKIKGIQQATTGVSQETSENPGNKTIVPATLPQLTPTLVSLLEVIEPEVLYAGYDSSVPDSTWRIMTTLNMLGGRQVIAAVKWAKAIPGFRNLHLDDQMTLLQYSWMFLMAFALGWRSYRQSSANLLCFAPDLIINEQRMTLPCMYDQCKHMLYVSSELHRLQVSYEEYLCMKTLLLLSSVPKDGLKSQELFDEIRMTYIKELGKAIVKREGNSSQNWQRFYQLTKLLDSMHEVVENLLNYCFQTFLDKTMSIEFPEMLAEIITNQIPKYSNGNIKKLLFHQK
Description: Glucocorticoid Receptor Binding Assay (II), fluorescence polarization competitor kit (Fluormone GS1). Conditions: cell lysate with recombinant human full-length GR, 1 nM Fluormone GS1, FP. As to the method:
In order to measure the binding of compounds on the glucocorticoid receptor a commercially available kit was used (Glucocorticoid receptor competitor assay kit, PanVera Co., Madison, Wis., P2816). Briefly, a cell lysate containing recombinantly expressed human full-length glucocorticoid receptor was mixed with a fluorescently labeled glucocorticoid (1 nM Fluormone GS1) in the presence or absence of test compound. After one hour at room temperature, the fluorescence polarization (FP) of the samples were measured.

Assay [3] addresses T2, human glucocorticoid receptor (Homo sapiens, UniProt P04150).
T2 construct: purified human recombinant full-length glucocorticoid receptor (2 nM); purchased Invitrogen Part #2893
T2 sequence (P04150 1-777): T1 sequence (P04150 1-777)
Description: Glucocorticoid Receptor Binding Assay (I), fluorescence polarization competitor kit (Fluormone GS Red). To be noted: purified human recombinant full-length GR 2 nM, 1 nM Fluormone GS Red, FP; read-out: GR (Ki, nM) (GR Binding Assay (I)). How it is done:
Briefly, purified human recombinant full-length glucocorticoid receptor (2 nM) was mixed with fluorescently labeled glucocorticoid (1 nM Fluormone GS Red) in the presence or absence of test compound. After two hour incubation at room temperature in the dark, the fluorescence polarization (FP) of the samples was measured. […] Test compounds were analyzed in the concentration range from 8.5E-05 μM to 5 μM.
(In general: In fluorescence polarisation assays a small probe gives low polarisation when free and higher when bound to something large.)

Regarding `CC(C)CC1(c2ccc3c(cnn3-c3ccc(F)cc3)c2)CC1C(=O)Nc1nccs1` (mixture of isomers) [Example 100, Cis and trans-2-(1-(4-fluorophenyl)-1H-indazol-5-yl)-2-isobutyl-N-(thiazol-2-yl)cyclopropanecarboxamide], the EC50 (as a rule, the midpoint of the concentration-response curve) in assay [1] (Homo sapiens, A549, 7 h) came to 290 nM. Besides, the Ki – broadly, the dissociation constant of the complex between target and ligand, obtained from inhibition or displacement – in assay [2] worked out at 102 nM.

Turning to `CC(C(=O)Nc1nncs1)C(c1ccccc1)c1ccc2[nH]ncc2c1` (single isomer, unassigned) [151-diast A, 3-(1H-Indazol-5-yl)-2-methyl-3-phenyl-N-(1,3,4-thiadiazol-2-yl)propanamide], the concentration giving a half-maximal response (EC50) in assay [1] (7 hours) turned out to be 9 nM. The Ki in assay [2] came out at 1.6 nM.

On to `CC(C(=O)Nc1nncs1)C(c1ccccc1)c1ccc2[nH]ncc2c1` (single isomer, unassigned) [151-diast B, 3-(1H-Indazol-5-yl)-2-methyl-3-phenyl-N-(1,3,4-thiadiazol-2-yl)propanamide], for which the EC50 in assay [1] (7 hours) was determined as 1740 nM. In addition, the Ki in assay [2] was 283 nM.

Take `CC(C)(C(=O)Nc1nccs1)C(c1ccccc1)c1ccc2c(-c3ccccc3)n[nH]c2c1` (centres unmarked) [Example 112, 2,2-Dimethyl-3-phenyl-3-(3-phenyl-1H-indazol-6-yl)-N-(thiazol-2-yl)propanamide]: the Ki in assay [3] was 13 nM. Besides, in assay [1] (Homo sapiens, A549, 7 h), the EC50 is 2410 nM.

`CC(C)(C(=O)Nc1nccs1)C(c1ccccc1)c1ccc2[nH]c(-c3ccncc3)cc2c1` (centres unmarked) [Example 115, 2,2-dimethyl-3-phenyl-3-(2-(pyridin-4-yl)-1H-indol-5-yl)-N-(thiazol-2-yl)propanamide]: the Ki in assay [3] was found to be 26 nM. Moreover, the EC50 in assay [1] (Homo sapiens, A549, 7 h) amounted to 3640 nM.

`CC(C)(C(=O)Nc1nncs1)C(c1ccccc1)c1ccc2[nH]c(-c3ccncc3)cc2c1` (centres unmarked) [Example 116, 2,2-dimethyl-3-phenyl-3-(2-(pyridin-4-yl)-1H-indol-5-yl)-N-(1,3,4-thiadiazol-2-yl)propanamide]: in assay [3], the Ki worked out at 43 nM. The EC50 in assay [1] (Homo sapiens, A549, 7 h) was found to be 3260 nM.

In the case of `CC(C)(C(=O)Nc1nccs1)C(c1ccccc1)c1ccc2[nH]c(-c3nccs3)cc2c1` (centres unmarked) [Example 117, 2,2-dimethyl-3-phenyl-N-(thiazol-2-yl)-3-(2-(thiazol-2-yl)-1H-indol-5-yl)propanamide], the Ki in assay [3] came out at 57 nM. In addition, the half-maximal effective concentration (EC50) in assay [1] (Homo sapiens, A549, 7 h) came out at 3610 nM.

As to `CC(C)(C(=O)Nc1nncs1)C(c1ccccc1)c1ccc2[nH]c(-c3nccs3)cc2c1` (centres unmarked) [Example 118, 2,2-dimethyl-3-phenyl-N-(1,3,4-thiadiazol-2-yl)-3-(2-(thiazol-2-yl)-1H-indol-5-yl)propanamide], in assay [3], the Ki was determined as 95 nM. In addition, the EC50 in assay [1] (Homo sapiens, A549, 7 h) was 2930 nM.

As for `Cc1ccc(-c2cc3cc(C(c4ccccc4)C(C)(C)C(=O)Nc4nccs4)ccc3[nH]2)cc1` (centres unmarked) [Example 119, 2,2-dimethyl-3-phenyl-N-(thiazol-2-yl)-3-(2-p-tolyl-1H-indol-5-yl)propanamide], the Ki in assay [3] came out at 146 nM. Also, the EC50 in assay [1] (Homo sapiens, A549, 7 h) was 2130 nM.

On to `CC(C)(C(=O)Nc1nncs1)C(C)(C)c1ccc2c(cnn2-c2ccc(F)cc2)c1` [Example 120, 3-(1-(4-fluorophenyl)-1H-indazol-5-yl)-2,2,3-trimethyl-N-(1,3,4-thiadiazol-2-yl)butanamide], for which the Ki in assay [3] came to 5.8 nM. The EC50 in assay [1] (Homo sapiens, A549, 7 h) turned out to be 74 nM.

For `CC(C)(C(=O)Nc1nncs1)[C@@H](c1ccccc1)c1ccc2c(cnn2-c2ccc(F)cc2C(=O)O)c1` [Example 157, 2-(5-((S)-3-(1,3,4-Thiadiazol-2-ylamino)-2,2-dimethyl-3-oxo-1-phenylpropyl)-1H-indazol-1-yl)-5-fluorobenzoic acid], in assay [2], the Ki amounted to 634 nM.

Consider `CC(C)(C(=O)Nc1nccs1)C(c1ccccc1)c1cnc2c(cnn2-c2ccccc2)c1` (centres unmarked) [Example 162, 2,2-dimethyl-3-phenyl-3-(1-phenyl-1H-pyrazolo[3,4-b]pyridin-5-yl)-N-(thiazol-2-yl)propanamide], for which the Ki in assay [3] was found to be 3.6 nM. In addition, the EC50 in assay [1] (Homo sapiens, A549, 7 h) worked out at 3560 nM.
